Columns and labels:
[1] = CD spectroscopy, α-helical content (CONTIN/LL deconvolution); type: physicochemical; details: 50 µM peptide in 97.5% TFE / 2.5% methanol, 25 °C, 190-260 nm, ten scans, CDPro CONTIN/LL
Protocol: CD spectra (Jasco J-810 circular dichroism spectropolarimeter, USA) were recorded at 1 nm intervals over the 190-260 nm wavelength range using 1 mm path length quartz cells (Hellma, Germany). Ten scans were performed. The experiments were run at 20 nm/min and the temperature was fixed at 298^° K (25 °C). The secondary structure of the peptide (50 µM) was determined in 97.5% 2,2,2-trifluoroethanol (TFE) and 2.5% methanol. The ellipticity is calculated per mole of amino-acid residue. To estimate the secondary structure of the peptide in terms of α-helical content, an analysis of the relevant CD spectra was carried out using the CDPro software (http://lamar.colostate.edu/~sreeram/CDPro/main.html) developed by Woody and coworkers. The basis set 10 of the CDPro software was used. The analysis was performed using the CONTIN/LL [31], a self-consistent method with an incorporated variable selection.

[2] = tested on: IP3R-mediated Ca2+ release in permeabilized MEF cells; test: Unidirectional 45Ca2+-flux assay, IP3-induced Ca2+ release (IICR); type: cell-based, mouse; details: result in words; for effect on IP3R-mediated Ca2+ release at 50 µM peptide: 3 µM IP3, 50 µM peptide
Protocol: ^45Ca^2+-unidirectional flux experiments were performed as previously described. Twelve-well clusters containing MEF cells were fixed on a thermostated plate at 30 °C on a mechanical shaker. The culture medium was aspirated, and the cells were permeabilized by incubating them for 10 min in a solution containing 120 mM KCl, 30 mM imidazole-HCl (pH 6.8), 2 mM MgCl2, 1 mM ATP, 1 mM EGTA and 20 µg/ml saponin. The non-mitochondrial Ca^2+ stores were then loaded for 45 min in 120 mM KCl, 30 mM imidazole-HCl (pH 6.8), 5 mM MgCl2, 5 mM ATP, 0.44 mM EGTA, 10 mM NaN3 to prevent mitochondrial Ca^2+ uptake, and 150 nM free ^45Ca^2+ (28 µCi/ml). Then, 1 ml of efflux medium containing 120 mM KCl, 30 mM imidazole-HCl (pH 6.8) and 1 mM EGTA was added and replaced every 2 min. IP3 (3 µM) was added for 2 min after 10 min of efflux. At the end of the experiment, all ^45Ca^2+ remaining in the stores was released by incubation with 1 ml of a 2% (w/v) sodium dodecyl sulfate solution for 30 min. Ca^2+ release was plotted as fractional loss (% / 2 min) as a function of time as previously described. The effect of the BH4-domain peptides on IICR was tested by pre-incubating the peptides for 4 min before exposing the stores to IP3.

[3] = target: GST-Dom3 IP3R1 (GST fused to IP3R1 Domain 3, aa 923-1581) (mouse, UniProt P11881 923-1581); test: cell-based or functional assay
Chain of GST-Dom3 IP3R1 (GST fused to IP3R1 Domain 3, aa 923-1581) (P11881 923-1581): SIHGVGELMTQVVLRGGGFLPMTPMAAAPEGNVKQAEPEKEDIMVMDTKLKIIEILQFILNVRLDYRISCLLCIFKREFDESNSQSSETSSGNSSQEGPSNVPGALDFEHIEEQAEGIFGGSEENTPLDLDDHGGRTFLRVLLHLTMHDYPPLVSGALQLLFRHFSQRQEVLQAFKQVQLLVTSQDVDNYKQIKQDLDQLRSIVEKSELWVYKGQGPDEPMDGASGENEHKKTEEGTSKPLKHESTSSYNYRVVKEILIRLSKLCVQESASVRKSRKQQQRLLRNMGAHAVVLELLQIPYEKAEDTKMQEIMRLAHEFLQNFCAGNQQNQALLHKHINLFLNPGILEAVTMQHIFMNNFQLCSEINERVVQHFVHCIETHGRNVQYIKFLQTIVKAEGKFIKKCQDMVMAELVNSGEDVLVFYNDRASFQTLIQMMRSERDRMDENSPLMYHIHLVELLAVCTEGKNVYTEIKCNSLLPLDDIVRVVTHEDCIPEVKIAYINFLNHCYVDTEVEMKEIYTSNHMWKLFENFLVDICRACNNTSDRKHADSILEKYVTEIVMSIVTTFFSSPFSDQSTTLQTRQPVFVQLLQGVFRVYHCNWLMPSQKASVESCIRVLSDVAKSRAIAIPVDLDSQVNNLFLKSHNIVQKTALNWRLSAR

Row | Molecule | α-helical content [1] [%] | IC50 of inhibition of IP3-induced Ca2+ release (IICR), unidirectional 45Ca2+ flux in permeabilized MEF cells, 3 µM IP3, peptide 0.1-100 µM [3] [µM] | effect on IP3R-mediated Ca2+ release at 50 µM peptide [2] | effect on IICR, concentration-response ([2]; 3 µM IP3, peptide 0.1-100 µM, 3 independent experiments)
1 | RTGYDNREGVMKYGHYKLSQRGYEW [Bcl-2-BH4 II/GG, Bcl-2-BH4 peptide with glycines at positions I14/I19] | 32 |  | lost their ability to inhibit IP3R-mediated Ca^2+ release | 
2 | WYEKQRSLHGIMYYVIEDRNTKGYR [Bcl-2-BH4 SCR, scrambled version of the Bcl-2-BH4 peptide, reference compound] |  |  |  | neither Bcl-2-BH4 IV/GG (Figure 3A-B) nor the scrambled version of the Bcl-2-BH4 peptide (Bcl-2-BH4 SCR) (Figure 3B) significantly affect IICR

The next lines start with results.

Row | α-helical content [1] [%] | IC50 of inhibition of IP3-induced Ca2+ release (IICR), unidirectional 45Ca2+ flux in permeabilized MEF cells, 3 µM IP3, peptide 0.1-100 µM [3] [µM] | Molecule | effect on IP3R-mediated Ca2+ release at 50 µM peptide [2] | effect on IICR, concentration-response ([2]; 3 µM IP3, peptide 0.1-100 µM, 3 independent experiments)
3 | 17.7 |  | RTGYDNREIGMKYGHYKGSQRGYEW [Bcl-2-BH4 VIL/GGG, Bcl-2-BH4 peptide with glycines at positions V15/I19/L23] | lost their ability to inhibit IP3R-mediated Ca^2+ release | 
4 |  | ~30 | RTGYDNREIVMKYIHYKLSQRGYEW [Bcl-2-BH4 peptide] |  | 
